RP-LC retention time data for 58 compounds are collected here from the METLIN SMRT retention time set (Domingo-Almenara et al. 2019).

A short description of this series: gradient 5% acetonitrile 3 min, to 50% in 2 min, to 85% in 15 min, held 3 min, 100 µL/min. The conditions noted are these: column: Zorbax Extend-C18 2.1 x 50 mm; eluents: water / acetonitrile, 0.1% formic acid. In a few lines: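 The mobile phases were water and acetonitrile, each with 0.1% formic acid, pumped at 100 μL/min through a Zorbax Extend-C18 column (2.1 × 50 mm, 1.8 μm). Pure standards were injected as mixtures of ~100 molecules and detected by a quadrupole time-of-flight mass spectrometer in positive and negative ionization mode. Retention time came from computationally picked adduct peaks, each inspected by hand.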
Compound `O=C(Nc1ccc2c(c1)OCO2)C(=O)c1c[nH]c2ccccc12` gave an RP-LC retention time of 890 s. In the case of `Cc1ccc(C)c(CN2CCC(CNC(=O)C3CCN(c4cc(=O)n(C)c(=O)n4C)CC3)CC2)c1`, the RP-LC retention time is 618 s. `C[C@H](NC(=O)Cc1cc(F)cc(F)c1)C(=O)N[C@@H]1C(=O)N(C)c2ccccc2-c2ccccc21` came in with an RP-LC retention time of 949 s. As for `CCc1ccc(NC(=O)Cc2nnc3cc(-c4nc(C)no4)ccn23)cc1`, the RP-LC retention time came out at 780 s. `CC1CCN(C(=O)c2cn(-c3ccc(-c4nc(C(C)(C)C)no4)cn3)cn2)CC1` displayed an RP-LC retention time of 1130 s. Regarding `O=S(=O)(NCc1ccco1)c1cc(-c2nnc(-c3ccccc3)o2)ccc1F`, the RP-LC retention time is 902 s.

Turning to `Cc1cccc(Cn2ccnc2C(N)=O)c1`, the RP-LC retention time was 801 s.

Take `CCOC(=O)c1ccc(N2C=C(C(=O)OC)S(=O)(=O)c3cc(F)ccc32)cc1`: the RP-LC retention time was determined as 861 s. In turn, `COc1ccc(CC(=O)Nc2nc3c(s2)COCC3)cc1OC` registered an RP-LC retention time of 638 s. To `Clc1ccccc1-c1nnc(CN2CCN(c3ccccn3)CC2)o1` belongs 602 s; to `Cc1ccc(N2CCC(NC(=O)Cc3ccccc3C)C2=O)cc1C` (stereo not drawn), 893 s. For the compound `O=C(NC1CCCC1)C1(CCO)CCN(Cc2ccccc2)C1` (stereo not drawn), the RP-LC retention time was 609 s. Regarding `COc1cccc(CNC(=O)N2CCCC(C)(C(=O)NCc3ccccc3C)C2)c1` (stereo not drawn), the RP-LC retention time turned out to be 860 s. `c1ccc(-c2nc3nc4c(c(Nc5ccc6c(c5)OCO6)n3n2)CCCC4)cc1`: the RP-LC retention time is 953 s. `CCCN(C(=O)Nc1cc(C)cc(C)c1)c1nc(-c2ccc(C3CCCCC3)cc2)cs1` gave an RP-LC retention time of 856 s. As for `CSc1ccc(N2C=NS(=O)(=O)c3cccnc32)cc1`, the figure is 810 s; as for `Cc1nc(-c2cccc(-c3noc(CNC(=O)Cc4ccc(Cl)cc4)n3)c2)cs1`, 986 s; as for `CS(=O)(=O)Nc1ccc(C2(C(=O)NCc3ccc4c(c3)OCO4)CCCCC2)cc1`, 857 s. On to `COC(=O)c1ncn2c1C(=O)N(Cc1ccccc1C)C(C)(C(=O)NC1CCCCC1)C2` (stereo not drawn), for which the RP-LC retention time is 792 s.

Take `COc1ccc2c(NCCCCCCNc3c4ccccc4nc4cc(OC)ccc34)c3ccccc3nc2c1`: the RP-LC retention time came out at 655 s. `COc1ccc(NC(=O)c2sc(-c3cn(C(C)C)c4ncccc34)nc2C)cc1OC`: the RP-LC retention time was 944 s. As for `COC(=O)C1=CN(c2ccc(OC)cc2)c2ccccc2S1(=O)=O`, the RP-LC retention time came out at 819 s. In turn, `CC1CCCC(NC(=O)c2cc3sc(Cl)cc3n2C)C1C` (stereo not drawn) came in with an RP-LC retention time of 1230 s. `Cn1c(C(=O)NCCc2c[nH]c3ccccc23)cc2c(-c3cccs3)nn(-c3ccccc3)c21` had an RP-LC retention time of 969 s.

`Cc1ccc(CNC(=O)C2(C)CN(S(C)(=O)=O)CC(=O)N2c2ccc(F)cc2)cc1` (stereo not drawn) returned an RP-LC retention time of 746 s. As for `O=C(COc1cccc2c1CCN(Cc1ccccc1F)C2=O)NCc1ccco1`, the figure is 790 s; as for `Cc1cccc(S(=O)(=O)N2Cc3ccccc3CC2C(=O)NCc2ccco2)c1` (stereo not drawn), 1000 s. As for `Cc1nn(C)c2c(N3CCC(C(=O)N4CCN(CC(=O)N5CCOCC5)CC4)CC3)nccc12`, the figure is 560 s; as for `N#Cc1cccc(-c2cn3c(n2)N(C(=O)c2cccc(F)c2)CCC3)c1`, 749 s; as for `Nc1ccccc1C(=O)NC(=O)Nc1ccc(Oc2ncc(Br)cn2)c(Cl)c1`, 946 s. Compound `O=C(CCc1c(-c2cccc(Cl)c2)nc2ccccn12)N1CCN(c2ccc(F)cc2)CC1` came in with an RP-LC retention time of 724 s.

For `CCc1nc(-c2cc(S(=O)(=O)Nc3ccc(F)cc3Cl)c(C)s2)cs1`, the RP-LC retention time is 1130 s.

In turn, `COc1ccc(NC(=O)C(C)C2CCN(C(=O)Nc3ccc(F)cc3)CC2)cc1` (stereo not drawn) came in with an RP-LC retention time of 799 s. `CCc1cc(=O)n(CC(=O)Nc2ccc(OC)c(Cl)c2)c(N2CCOCC2)n1`: the RP-LC retention time was found to be 772 s. As to `CC(C)(C)c1ccc(C(=O)Nc2ccc3nnc(C4CCC4)n3c2)cc1`, the RP-LC retention time was determined as 772 s.

`O=C(Nc1ccc(N2CCCS2(=O)=O)cc1)NC(c1ccccc1)c1ccccc1` yielded an RP-LC retention time of 814 s.

In the case of `CC(C)C(=O)Nc1ccc(C2(C(=O)N3CCN(C(C)C)CC3)CCCCC2)cc1`, the RP-LC retention time amounted to 652 s. The compound `CCCn1c(=O)sc2cc(S(=O)(=O)N3CCC(C(=O)N4CCCC4)CC3)ccc21` yielded an RP-LC retention time of 807 s. `CCOC(=O)N1CCN(C(=O)C2CCCN(c3ccc(-c4ccco4)nn3)C2)CC1` (stereo not drawn) came in with an RP-LC retention time of 606 s. Turning to `O=C(NCc1cccs1)C1CCCN(S(=O)(=O)c2c[nH]c(C(=O)N3CCCCCC3)c2)C1` (stereo not drawn), the RP-LC retention time was 812 s.

In turn, `Cc1cccc(C)c1OCC(N)C(C)C` (stereo not drawn) gave an RP-LC retention time of 728 s. Regarding `O=C(CN1C(=O)C(C(=O)N2CCCC2)Sc2ccccc21)N1CC=C(c2ccccc2)CC1` (stereo not drawn), the RP-LC retention time came out at 897 s. The compound `COc1cccc(OC)c1C(=O)Nc1ccc2c(c1)CCCN2C(=O)C1CC1` displayed an RP-LC retention time of 722 s. To `Cn1nc2c(c1NC(=O)COc1ccc(Cl)cc1Cl)CCC2` belongs 815 s; to `Cc1cc(C2CCCN2C(=O)Cc2ccccc2Cl)no1` (stereo not drawn), 804 s. `CCC(C(=O)NCCc1c[nH]c2ccc(OC)cc12)n1nc(C)c2nn(-c3ccccc3)c(C)c2c1=O` (stereo not drawn) displayed an RP-LC retention time of 895 s. Compound `O=C(NC1CCCC1)C1CCCN(S(=O)(=O)c2cc(-c3noc(C4CCCC4)n3)cs2)C1` (stereo not drawn) registered an RP-LC retention time of 1120 s. As to `CC(=O)Oc1ccc2cc(-c3ccccc3)c(=O)oc2c1`, the RP-LC retention time stood at 1000 s. `CC(=O)c1cccc(NC(=O)c2cc(C)nc3ccccc23)c1` registered an RP-LC retention time of 654 s. Turning to `Cn1nc(C(=O)N2CCC3(CC2)N=C(c2ccccc2)NO3)c2ccccc21`, the RP-LC retention time stood at 809 s. The compound `COc1ccc(NC(=O)c2ccc(-c3cncnc3)nc2)cc1` registered an RP-LC retention time of 687 s. Compound `O=C(Nc1nc(-c2ccccn2)cs1)c1ccc(N2CCOCC2)c([N+](=O)[O-])c1` showed an RP-LC retention time of 631 s. To `O=C(NC1CCc2nn(CC3CC3)c(=O)n2CC1)c1cc(C2CC2)[nH]n1` (stereo not drawn) belongs 627 s. On to `CCC(C)NC(=O)c1ccc2c(c1)CCN2C(C)=O` (stereo not drawn), for which the RP-LC retention time is 668 s. In turn, `CCOC(=O)CC1(NC(=O)N2CCc3c(c(C(=O)N4CCCCC4)nn3C)C2)CCCCC1` came in with an RP-LC retention time of 810 s.

`CCc1cc(N2CCN(C(=O)c3cc(OC)c(OC)c(OC)c3)CC2)nc2nncn12`: the RP-LC retention time was 593 s. `CC1CCCCN1S(=O)(=O)c1ccc2c(c1)CCC(=O)N2CC(=O)NCc1ccc(F)cc1` (stereo not drawn) returned an RP-LC retention time of 855 s. Compound `Cc1ccc2c(c1)OCC(=O)N2Cc1nc(-c2ccc(Cl)cc2)no1` had an RP-LC retention time of 1140 s.
